Laboratory results taken from US20080260896A1 (priority 2007, published 2008).
Like-named read-outs stand apart in the source and are kept apart here. Marks after values point to notes of the source that are not given here.

Experiments:
[1] = Crude glycerin in finishing cattle diets: animal performance (weight, ADG, DMI, gain/feed); assay type: in vivo, Angus-cross steers; conditions: for Average Daily Gain / Dry Matter Intake / Gain/Feed, ×100 / Weight: 10% DM glycerin
Procedure: All cattle were adapted on a common 4-step transition prior to initiation of the evaluation. Cattle were blocked by weight (4 blocks) with four pens per treatment (9-10 head/pen). […] Individual weights were collected at 28-day intervals throughout with steers terminated on three harvest dates (days on feed 116 to 153 days) based on weight and condition. Six monthly periods and cumulative (d 1-116 and 1-153) periods were analyzed.

[2] = lambs
Excerpt: Lambs received a common receiving ration for one week prior to allotment. Lambs were blocked by weight (4 blocks) and fed in individual crates for […]. […] Initial and final weights were collected on consecutive days and an interim weight was taken on day 14. Periods were: 1) days 1 to 14, 2) days 15 to 29, and 3) cumulative (days 1 to 29).

[3] = Day 1-28, DDGS:Soy Hulls 10:0 diet (Treatment 2)
[4] = Day 1-28, DDGS:Soy Hulls 30:15 diet (Treatment 4)
[5] = Day 1-28, main effect over both diets
[6] = Day 1-116, DDGS:Soy Hulls 10:0 diet (Treatment 2)
[7] = Day 1-116, DDGS:Soy Hulls 30:15 diet (Treatment 4)
[8] = Day 1-116, main effect over both diets
[9] = Day 1-153, DDGS:Soy Hulls 10:0 diet (Treatment 2)
[10] = Day 1-153, DDGS:Soy Hulls 30:15 diet (Treatment 4)
[11] = Day 1-153, main effect over both diets
[12] = Day 29-56, DDGS:Soy Hulls 10:0 diet (Treatment 2)
[13] = Day 29-56, DDGS:Soy Hulls 30:15 diet (Treatment 4)
[14] = Day 29-56, main effect over both diets
[15] = Day 57-84, DDGS:Soy Hulls 10:0 diet (Treatment 2)
[16] = Day 57-84, DDGS:Soy Hulls 30:15 diet (Treatment 4)
[17] = Day 57-84, main effect over both diets
[18] = Day 85-116, DDGS:Soy Hulls 10:0 diet (Treatment 2)
[19] = Day 85-116, DDGS:Soy Hulls 30:15 diet (Treatment 4)
[20] = Day 85-116, main effect over both diets
[21] = Day 117-132, DDGS:Soy Hulls 10:0 diet (Treatment 2)
[22] = Day 117-132, DDGS:Soy Hulls 30:15 diet (Treatment 4)
[23] = Day 117-132, main effect over both diets
[24] = Day 133-153, DDGS:Soy Hulls 10:0 diet (Treatment 2)
[25] = Day 133-153, DDGS:Soy Hulls 30:15 diet (Treatment 4)
[26] = Day 133-153, main effect over both diets
[27] = high co-product diets with glycerin

OCC(O)CO [crude glycerin, glycerin]
Average Daily Gain [1, 3]: 1.46^a kg/hd/d
Dry Matter Intake [1, 3]: 7.97^c kg/hd/d
Gain/Feed, ×100 [1, 3]: 18.27^a
Average Daily Gain [1, 4]: 1.31^ab kg/hd/d
Dry Matter Intake [1, 4]: 8.34^bc kg/hd/d
Gain/Feed, ×100 [1, 4]: 15.64^b
Average Daily Gain [1, 5]: 1.38 kg/hd/d
Dry Matter Intake [1, 5]: 8.16 kg/hd/d
Gain/Feed, ×100 [1, 5]: 16.96
Average Daily Gain [1, 6]: 1.30 kg/hd/d
Dry Matter Intake [1, 6]: 8.31^c kg/hd/d
Gain/Feed, ×100 [1, 6]: 15.66^a
Average Daily Gain [1, 7]: 1.27 kg/hd/d
Dry Matter Intake [1, 7]: 8.95^b kg/hd/d
Gain/Feed, ×100 [1, 7]: 14.28^b
Average Daily Gain [1, 8]: 1.29 kg/hd/d
Dry Matter Intake [1, 8]: 8.63 kg/hd/d
Gain/Feed, ×100 [1, 8]: 14.97
Average Daily Gain [1, 9]: 1.27^a kg/hd/d
Dry Matter Intake [1, 9]: 8.37^c kg/hd/d
Gain/Feed, ×100 [1, 9]: 15.21^a
Average Daily Gain [1, 10]: 1.21^ab kg/hd/d
Dry Matter Intake [1, 10]: 8.99^b kg/hd/d
Gain/Feed, ×100 [1, 10]: 13.43^b
Average Daily Gain [1, 11]: 1.24 kg/hd/d
Dry Matter Intake [1, 11]: 8.68 kg/hd/d
Gain/Feed, ×100 [1, 11]: 14.32
Weight ([1]; Day 28, DDGS:Soy Hulls 10:0 diet (Treatment 2)): 428.2^a kg
Weight ([1]; Day 28, DDGS:Soy Hulls 30:15 diet (Treatment 4)): 423.9^ab kg
Weight ([1]; Day 28, main effect over both diets): 426.1 kg
Average Daily Gain [1, 12]: 1.53 kg/hd/d
Dry Matter Intake [1, 12]: 8.78^c kg/hd/d
Gain/Feed, ×100 [1, 12]: 17.43^a
Average Daily Gain [1, 13]: 1.66 kg/hd/d
Dry Matter Intake [1, 13]: 9.95^b kg/hd/d
Gain/Feed, ×100 [1, 13]: 16.78^a
Average Daily Gain [1, 14]: 1.60 kg/hd/d
Dry Matter Intake [1, 14]: 9.36 kg/hd/d
Gain/Feed, ×100 [1, 14]: 17.10
Weight ([1]; Day 56, DDGS:Soy Hulls 10:0 diet (Treatment 2)): 471.2 kg
Weight ([1]; Day 56, DDGS:Soy Hulls 30:15 diet (Treatment 4)): 470.5 kg
Weight ([1]; Day 56, main effect over both diets): 470.9 kg
Average Daily Gain [1, 15]: 1.29 kg/hd/d
Dry Matter Intake [1, 15]: 8.84^b kg/hd/d
Gain/Feed, ×100 [1, 15]: 14.64
Average Daily Gain [1, 16]: 1.25 kg/hd/d
Dry Matter Intake [1, 16]: 9.37^b kg/hd/d
Gain/Feed, ×100 [1, 16]: 13.36
Average Daily Gain [1, 17]: 1.27 kg/hd/d
Dry Matter Intake [1, 17]: 9.11 kg/hd/d
Gain/Feed, ×100 [1, 17]: 14.00
Weight ([1]; Day 84, DDGS:Soy Hulls 10:0 diet (Treatment 2)): 507.3 kg
Weight ([1]; Day 84, DDGS:Soy Hulls 30:15 diet (Treatment 4)): 505.4 kg
Weight ([1]; Day 84, main effect over both diets): 506.4 kg
Average Daily Gain [1, 18]: 0.97 kg/hd/d
Dry Matter Intake [1, 18]: 7.74^c kg/hd/d
Gain/Feed, ×100 [1, 18]: 12.47
Average Daily Gain [1, 19]: 0.93 kg/hd/d
Dry Matter Intake [1, 19]: 8.25^bc kg/hd/d
Gain/Feed, ×100 [1, 19]: 11.22
Average Daily Gain [1, 20]: 0.95 kg/hd/d
Dry Matter Intake [1, 20]: 8.00 kg/hd/d
Gain/Feed, ×100 [1, 20]: 11.84
Weight ([1]; Day 116, DDGS:Soy Hulls 10:0 diet (Treatment 2)): 538.3 kg
Weight ([1]; Day 116, DDGS:Soy Hulls 30:15 diet (Treatment 4)): 535.1 kg
Weight ([1]; Day 116, main effect over both diets): 536.7 kg
Average Daily Gain [1, 21]: 1.46 kg/hd/d
Dry Matter Intake [1, 21]: 8.67^ab kg/hd/d
Gain/Feed, ×100 [1, 21]: 17.25
Average Daily Gain [1, 22]: 1.26 kg/hd/d
Dry Matter Intake [1, 22]: 9.54^ab kg/hd/d
Gain/Feed, ×100 [1, 22]: 12.86
Average Daily Gain [1, 23]: 1.36 kg/hd/d
Dry Matter Intake [1, 23]: 9.11 kg/hd/d
Gain/Feed, ×100 [1, 23]: 15.06
Weight ([1]; Day 132, DDGS:Soy Hulls 10:0 diet (Treatment 2)): 552.8 kg
Weight ([1]; Day 132, DDGS:Soy Hulls 30:15 diet (Treatment 4)): 548.8 kg
Weight ([1]; Day 132, main effect over both diets): 550.8 kg
Average Daily Gain [1, 24]: 1.39^a kg/hd/d
Dry Matter Intake [1, 24]: 8.48 kg/hd/d
Gain/Feed, ×100 [1, 24]: 16.48^a
Average Daily Gain [1, 25]: 0.90^b kg/hd/d
Dry Matter Intake [1, 25]: 9.42 kg/hd/d
Gain/Feed, ×100 [1, 25]: 9.35^b
Average Daily Gain [1, 26]: 1.15 kg/hd/d
Dry Matter Intake [1, 26]: 8.95 kg/hd/d
Gain/Feed, ×100 [1, 26]: 12.92
Weight ([1]; Day 153, DDGS:Soy Hulls 10:0 diet (Treatment 2)): 570.5 kg
Weight ([1]; Day 153, DDGS:Soy Hulls 30:15 diet (Treatment 4)): 548.0 kg
Weight ([1]; Day 153, main effect over both diets): 559.3 kg
Cumulative ADG better [1, 27]: 2.5%
cumulative DMI lower [1, 27]: 11.8%
cumulative gain: feed better [1, 27]: 16.4%
Cumulative ADG greater ([1]; high-grain diets with glycerin): 11.4%
cumulative DMI lesser ([1]; high-grain diets with glycerin): 8.1%
cumulative gain: feed greater ([1]; high-grain diets with glycerin): 21.9%
Cumulative ADG ([1]; steers fed diets containing 10% crude glycerin (main effect)): 1.24 kg/day
dry matter intake (DMI) ([1]; steers fed diets with added glycerin (main effect), cumulative): 8.68 kg/day
Final weight ([2]; 0 to 20% crude glycerin): not significantly different
morbidity and mortality, treatment effects ([2]; 0 to 20% crude glycerin): treatment effects were not different
cumulative DMI ([2]; 5% crude glycerin): 1.26 kg/day
cumulative DMI ([2]; 10% crude glycerin): 1.21 kg/day
cumulative DMI ([2]; 15% crude glycerin): 1.27 kg/day
cumulative DMI ([2]; 20% crude glycerin): 1.20 kg/day
Cumulative ADG ([2]; days 1 to 29, 5% crude glycerin): 0.40 kg/day
Cumulative ADG ([2]; days 1 to 29, 10% crude glycerin): 0.36 kg/day
Cumulative ADG ([2]; days 1 to 29, 15% crude glycerin): 0.39 kg/day
Cumulative ADG ([2]; days 1 to 29, 20% crude glycerin): 0.36 kg/day
palatability ([2]; levels of up to 20% dry matter (DM) inclusion): not a concern
